Bounds are passed on as bounds.

This passage reports FGFR1/FGFR4, FGFR3/FGFR4 and FGFR2/FGFR4 results from patent publication US9801889B2, “Bicyclic heterocycles as FGFR4 inhibitors” (Incyte Corporation, priority 2015, dated 2017).

Common to all, as to conditions: IC50 ratio showing FGFR4 selectivity
One experiment addresses FGFR1 (Homo sapiens (Human), UniProt P11362). Briefly: FGFR Enzymatic Assay (FRET peptide phosphorylation), FGFR1.
For the next experiment, the target named is FGFR3 (Homo sapiens (Human), UniProt P22607). Briefly: FGFR Enzymatic Assay (FRET peptide phosphorylation), FGFR3.
A further experiment deals with FGFR2 (Homo sapiens (Human), UniProt P21802). Briefly: FGFR Enzymatic Assay (FRET peptide phosphorylation), FGFR2.
Setting [1] is: pre-incubated for 5 to 10 minutes.

Sequence of FGFR3 (P22607 23-806): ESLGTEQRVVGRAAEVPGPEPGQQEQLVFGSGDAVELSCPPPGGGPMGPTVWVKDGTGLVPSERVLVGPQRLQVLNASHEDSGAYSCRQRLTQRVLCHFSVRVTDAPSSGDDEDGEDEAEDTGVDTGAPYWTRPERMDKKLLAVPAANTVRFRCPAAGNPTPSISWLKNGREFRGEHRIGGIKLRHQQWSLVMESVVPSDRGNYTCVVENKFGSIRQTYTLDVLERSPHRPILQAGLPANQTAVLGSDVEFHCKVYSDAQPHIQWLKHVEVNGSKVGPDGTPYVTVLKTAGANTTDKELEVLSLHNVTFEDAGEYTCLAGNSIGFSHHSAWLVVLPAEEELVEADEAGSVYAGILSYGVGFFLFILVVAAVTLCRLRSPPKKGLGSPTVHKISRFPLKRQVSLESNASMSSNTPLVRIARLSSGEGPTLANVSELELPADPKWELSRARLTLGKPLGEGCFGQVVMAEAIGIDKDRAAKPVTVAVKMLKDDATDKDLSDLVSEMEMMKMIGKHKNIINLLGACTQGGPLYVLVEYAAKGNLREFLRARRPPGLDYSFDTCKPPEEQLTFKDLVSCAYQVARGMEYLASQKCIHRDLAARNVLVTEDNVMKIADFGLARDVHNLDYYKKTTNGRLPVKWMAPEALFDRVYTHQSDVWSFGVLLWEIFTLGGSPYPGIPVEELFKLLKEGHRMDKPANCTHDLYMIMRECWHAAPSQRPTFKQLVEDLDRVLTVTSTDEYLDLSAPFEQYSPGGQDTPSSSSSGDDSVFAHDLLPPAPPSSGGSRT
Sequence of FGFR2 (P21802 22-821): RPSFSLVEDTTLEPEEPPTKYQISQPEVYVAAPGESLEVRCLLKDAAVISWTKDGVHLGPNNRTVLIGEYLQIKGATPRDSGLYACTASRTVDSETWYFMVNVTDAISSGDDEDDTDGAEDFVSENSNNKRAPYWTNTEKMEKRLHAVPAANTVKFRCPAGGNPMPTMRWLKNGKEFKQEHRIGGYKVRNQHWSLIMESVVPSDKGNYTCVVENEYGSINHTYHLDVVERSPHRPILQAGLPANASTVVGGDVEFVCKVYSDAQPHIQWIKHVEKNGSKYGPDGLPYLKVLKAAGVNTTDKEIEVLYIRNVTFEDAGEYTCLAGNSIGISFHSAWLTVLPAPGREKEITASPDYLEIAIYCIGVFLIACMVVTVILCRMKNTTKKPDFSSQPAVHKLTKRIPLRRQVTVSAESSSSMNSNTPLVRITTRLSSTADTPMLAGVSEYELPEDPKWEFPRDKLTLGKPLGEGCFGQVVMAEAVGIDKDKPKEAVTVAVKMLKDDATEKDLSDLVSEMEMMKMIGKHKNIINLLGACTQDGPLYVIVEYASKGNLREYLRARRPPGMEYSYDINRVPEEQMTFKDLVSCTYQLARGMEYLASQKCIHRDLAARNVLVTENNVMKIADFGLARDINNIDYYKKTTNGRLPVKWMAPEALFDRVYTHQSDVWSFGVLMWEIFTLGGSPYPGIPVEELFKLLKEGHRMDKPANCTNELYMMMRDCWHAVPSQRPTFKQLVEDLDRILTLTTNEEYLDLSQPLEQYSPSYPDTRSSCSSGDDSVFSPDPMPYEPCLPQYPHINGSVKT
Sequence of FGFR1 (P11362 22-822): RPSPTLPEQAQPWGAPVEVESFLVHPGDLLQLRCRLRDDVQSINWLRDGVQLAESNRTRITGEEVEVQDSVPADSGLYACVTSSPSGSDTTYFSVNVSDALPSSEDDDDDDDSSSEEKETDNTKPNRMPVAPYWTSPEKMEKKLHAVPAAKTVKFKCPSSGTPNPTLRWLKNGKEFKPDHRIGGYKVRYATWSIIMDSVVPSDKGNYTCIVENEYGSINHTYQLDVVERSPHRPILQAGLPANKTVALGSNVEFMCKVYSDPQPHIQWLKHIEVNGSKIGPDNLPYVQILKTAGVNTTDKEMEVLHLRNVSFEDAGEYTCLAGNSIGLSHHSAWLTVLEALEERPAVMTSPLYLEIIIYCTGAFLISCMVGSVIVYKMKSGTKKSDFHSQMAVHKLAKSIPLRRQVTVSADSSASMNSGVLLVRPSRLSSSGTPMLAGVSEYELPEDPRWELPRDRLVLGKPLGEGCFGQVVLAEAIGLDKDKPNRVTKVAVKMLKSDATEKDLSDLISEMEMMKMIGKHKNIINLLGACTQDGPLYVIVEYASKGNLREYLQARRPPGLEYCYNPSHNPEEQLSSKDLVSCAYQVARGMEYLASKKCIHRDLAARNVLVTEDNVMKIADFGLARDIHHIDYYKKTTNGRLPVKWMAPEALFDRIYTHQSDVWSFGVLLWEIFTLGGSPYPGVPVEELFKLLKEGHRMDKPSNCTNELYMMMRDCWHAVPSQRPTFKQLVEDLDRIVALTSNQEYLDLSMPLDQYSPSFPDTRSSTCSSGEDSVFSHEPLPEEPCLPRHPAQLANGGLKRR
Text for FGFR1: (§1) The enzymes were purchased from Millipore or Invitrogen.
(§2) GraphPad prism3 was used to analyze the data. The IC50 values were derived by fitting the data to the equation for a sigmoidal dose-response with a variable slope. Y=Bottom+(Top-Bottom)/(1+10^((LogIC50-X)*HillSlope)) where X is the logarithm of concentration and Y is the response.
Text for FGFR2: as §1, §2
Text for FGFR3: as §1, §2

Regarding `C=CC(=O)Nc1cnn(Cc2cnn(C)c2)c1-c1cc2c(cn1)CN(c1c(F)c(OC)cc(OC)c1F)C(=O)C21CC1` [Example 27, N-(5-(2′-(2,6-difluoro-3,5-dimethoxyphenyl)-3′-oxo-2′,3′-dihydro-1′H-spiro[cyclopropane-1,4′-[2,7]naphthyridine]-6′-yl)-1-((1-methyl-1H-pyrazol-4-yl)methyl)-1H-pyrazol-4-yl)acrylamide], at FGFR1 (pre-incubated for 4 hours), the FGFR1/FGFR4 is given as over 100. Further, the FGFR3/FGFR4 on FGFR3 (pre-incubated for 4 hours) was over 100. In addition, the FGFR2/FGFR4 at FGFR2 (pre-incubated for 4 hours) is reported as over 100.

Regarding `C=CC(=O)Nc1cn(CC(=O)N(C)C)nc1-c1cc2c(cn1)CN(c1c(F)c(OC)cc(OC)c1F)C(=O)C21CC1` [Example 36, N-(3-(2′-(2,6-difluoro-3,5-dimethoxyphenyl)-3′-oxo-2′,3′-dihydro-1′H-spiro[cyclopropane-1,4′-[2,7]naphthyridine]-6′-yl)-1-(2-(dimethylamino)-2-oxoethyl)-1H-pyrazol-4-yl)acrylamide], the FGFR1/FGFR4 at FGFR1 (pre-incubated for 4 hours) was over 100. Also, on FGFR3 (pre-incubated for 4 hours), the FGFR3/FGFR4 was over 100. Also, the FGFR2/FGFR4 on FGFR2 (pre-incubated for 4 hours) is listed as over 100.

As for `C=CC(=O)Nc1cc(-c2cc3c(cn2)CN(c2c(F)c(OC)cc(OC)c2F)C(=O)C32CC2)ccc1CN1CCOCC1` [Example 12, N-(5-(2′-(2,6-difluoro-3,5-dimethoxyphenyl)-3′-oxo-2′,3′-dihydro-1′H-spiro[cyclopropane-1,4′-[2,7]naphthyridine]-6′-yl)-2-(morpholinomethyl)phenyl)acrylamide], the FGFR1/FGFR4 was over 10 at FGFR1 (setting [1]) and over 100 on FGFR1 (pre-incubated for 4 hours). Moreover, the figures for the FGFR3/FGFR4 at FGFR3 (setting [1]) and on FGFR3 (pre-incubated for 4 hours) were over 1 and over 10, respectively. Moreover, the FGFR2/FGFR4 at FGFR2 (setting [1]) was over 1; on FGFR2 (pre-incubated for 4 hours) it was over 25.

On to `C=CC(=O)Nc1cnn(CCN2CCOCC2)c1-c1cc2c(cn1)CN(c1c(F)c(OC)cc(OC)c1F)C(=O)C21CC1` [Example 19, N-(5-(2′-(2,6-difluoro-3,5-dimethoxyphenyl)-3′-oxo-2′,3′-dihydro-1′H-spiro[cyclopropane-1,4′-[2,7]naphthyridine]-6′-yl)-1-(2-morpholinoethyl)-1H-pyrazol-4-yl)acrylamide], for which, at FGFR1 (pre-incubated for 4 hours), the FGFR1/FGFR4 is over 100. The FGFR3/FGFR4 at FGFR3 (pre-incubated for 4 hours) is over 100. In addition, the FGFR2/FGFR4 on FGFR2 (pre-incubated for 4 hours) is listed as over 100.

As to `C=CC(=O)Nc1cnn(C[C@@H]2CCCO2)c1-c1cc2c(cn1)CN(c1c(F)c(OC)cc(OC)c1F)C(=O)C21CC1` [Example 31, (S)-N-(5-(2′-(2,6-difluoro-3,5-dimethoxyphenyl)-3′-oxo-2′,3′-dihydro-1′H-spiro[cyclopropane-1,4′-[2,7]naphthyridine]-6′-yl)-1-((tetrahydrofuran-2-yl)methyl)-1H-pyrazol-4-yl)acrylamide], the FGFR1/FGFR4 on FGFR1 (pre-incubated for 4 hours) is listed as over 100. In addition, the FGFR3/FGFR4 on FGFR3 (pre-incubated for 4 hours) is on record as over 100. The FGFR2/FGFR4 on FGFR2 (pre-incubated for 4 hours) is reported as over 100.

Take `C=CC(=O)N1CCCC(c2cc3c(cn2)CN(c2c(F)c(OC)cc(OC)c2F)C(=O)C32CC2)C1` (stereo not drawn) [Example 8, 6′-(1-acryloylpiperidin-3-yl)-2′-(2,6-difluoro-3,5-dimethoxyphenyl)-1′H-spiro[cyclopropane-1,4′-[2,7]naphthyridin]-3′(2′H)-one]: the FGFR1/FGFR4 is listed as over 5 at FGFR1 (setting [1]) and over 10 on FGFR1 (pre-incubated for 4 hours). The FGFR3/FGFR4 on FGFR3 (setting [1]) is over 1; on FGFR3 (pre-incubated for 4 hours), over 2. Besides, the values for the FGFR2/FGFR4 on FGFR2 (setting [1]) and at FGFR2 (pre-incubated for 4 hours) were over 1 and over 2, respectively.

For `C=CC(=O)Nc1cnn(CCOC)c1-c1cc2c(cn1)CN(c1c(F)c(OC)cc(OC)c1F)C(=O)C21CC1` [Example 15, N-(5-(2′-(2,6-difluoro-3,5-dimethoxyphenyl)-3′-oxo-2′,3′-dihydro-1′H-spiro[cyclopropane-1,4′-[2,7]naphthyridine]-6′-yl)-1-(2-methoxyethyl)-1H-pyrazol-4-yl)acrylamide], at FGFR1 (pre-incubated for 4 hours), the FGFR1/FGFR4 was over 100. The FGFR3/FGFR4 at FGFR3 (pre-incubated for 4 hours) is over 100. Also, the FGFR2/FGFR4 at FGFR2 (pre-incubated for 4 hours) is recorded as over 100.

With `C=CC(=O)Nc1ccc(C#N)c(-c2cc3c(cn2)CN(c2c(F)c(OC)cc(OC)c2F)C(=O)C32CC2)c1` [Example 5, N-(4-cyano-3-(2′-(2,6-difluoro-3,5-dimethoxyphenyl)-3′-oxo-2′,3′-dihydro-1′H-spiro[cyclopropane-1,4′-[2,7]naphthyridine]-6′-yl)phenyl)acrylamide], the FGFR1/FGFR4 on FGFR1 (setting [1]) and on FGFR1 (pre-incubated for 4 hours) was over 100 in each case. The FGFR3/FGFR4 on FGFR3 (setting [1]) and at FGFR3 (pre-incubated for 4 hours) was over 100 throughout. In addition, the FGFR2/FGFR4 on FGFR2 (setting [1]) and at FGFR2 (pre-incubated for 4 hours) was over 100 in each case.

Regarding `C=CC(=O)Nc1cnn(Cc2ncn(C)n2)c1-c1cc2c(cn1)CN(c1c(F)c(OC)cc(OC)c1F)C(=O)C21CC1` [Example 23, N-(5-(2′-(2,6-difluoro-3,5-dimethoxyphenyl)-3′-oxo-2′,3′-dihydro-1′H-spiro[cyclopropane-1,4′-[2,7]naphthyridine]-6′-yl)-1-((1-methyl-1H-1,2,4-triazol-3-yl)methyl)-1H-pyrazol-4-yl)acrylamide], the FGFR1/FGFR4 on FGFR1 (pre-incubated for 4 hours) was over 100. Further, on FGFR3 (pre-incubated for 4 hours), the FGFR3/FGFR4 is reported as over 100. The FGFR2/FGFR4 at FGFR2 (pre-incubated for 4 hours) was over 100.

Consider `C=CC(=O)Nc1cnn(Cc2cccnc2)c1-c1cc2c(cn1)CN(c1c(F)c(OC)cc(OC)c1F)C(=O)C21CC1` [Example 22, N-(5-(2′-(2,6-difluoro-3,5-dimethoxyphenyl)-3′-oxo-2′,3′-dihydro-1′H-spiro[cyclopropane-1,4′-[2,7]naphthyridine]-6′-yl)-1-(pyridin-3-ylmethyl)-1H-pyrazol-4-yl)acrylamide], for which the FGFR1/FGFR4 on FGFR1 (pre-incubated for 4 hours) was over 100. Further, the FGFR3/FGFR4 on FGFR3 (pre-incubated for 4 hours) is on record as over 100. Besides, on FGFR2 (pre-incubated for 4 hours), the FGFR2/FGFR4 is on record as over 100.

Regarding `C=CC(=O)Nc1ccc(C)c(-c2ncc3c(n2)C2(CC2)C(=O)N(c2c(F)c(OC)cc(OC)c2F)C3)c1` [Example 37, N-(3-(6′-(2,6-difluoro-3,5-dimethoxyphenyl)-7′-oxo-6′,7′-dihydro-5′H-spiro[cyclopropane-1,8′-pyrido[4,3-d]pyrimidine]-2′-yl)-4-methylphenyl)acrylamide], the FGFR1/FGFR4 on FGFR1 (pre-incubated for 4 hours) is given as over 100. Also, the FGFR3/FGFR4 at FGFR3 (pre-incubated for 4 hours) is over 100. The FGFR2/FGFR4 at FGFR2 (pre-incubated for 4 hours) is given as over 100.

`C=CC(=O)Nc1cnn(Cc2ccon2)c1-c1cc2c(cn1)CN(c1c(F)c(OC)cc(OC)c1F)C(=O)C21CC1` [Example 25, N-(5-(2′-(2,6-difluoro-3,5-dimethoxyphenyl)-3′-oxo-2′,3′-dihydro-1′H-spiro[cyclopropane-1,4′-[2,7]naphthyridine]-6′-yl)-1-(isoxazol-3-ylmethyl)-1H-pyrazol-4-yl)acrylamide]: on FGFR1 (pre-incubated for 4 hours), the FGFR1/FGFR4 is listed as over 100. Besides, at FGFR3 (pre-incubated for 4 hours), the FGFR3/FGFR4 is on record as over 100. Further, the FGFR2/FGFR4 on FGFR2 (pre-incubated for 4 hours) is reported as over 100.

In the case of `C=CC(=O)Nc1cn[nH]c1-c1cc2c(cn1)CN(c1c(F)c(OC)cc(OC)c1F)C(=O)C21CC1` [Example 14, N-(5-(2′-(2,6-difluoro-3,5-dimethoxyphenyl)-3′-oxo-2′,3′-dihydro-1′H-spiro[cyclopropane-1,4′-[2,7]naphthyridine]-6′-yl)-1H-pyrazol-4-yl)acrylamide], the FGFR1/FGFR4 on FGFR1 (pre-incubated for 4 hours) is listed as over 100. Further, the FGFR3/FGFR4 at FGFR3 (pre-incubated for 4 hours) is over 100. The FGFR2/FGFR4 on FGFR2 (pre-incubated for 4 hours) is recorded as over 100.

`C=CC(=O)Nc1cnn(C[C@H]2CCCO2)c1-c1cc2c(cn1)CN(c1c(F)c(OC)cc(OC)c1F)C(=O)C21CC1` [Example 30]: at FGFR1 (pre-incubated for 4 hours), the FGFR1/FGFR4 is over 100. Besides, the FGFR3/FGFR4 at FGFR3 (pre-incubated for 4 hours) is on record as over 100. Further, the FGFR2/FGFR4 at FGFR2 (pre-incubated for 4 hours) is over 100.

Turning to `C=CC(=O)Nc1cnn(CCO)c1-c1cc2c(cn1)CN(c1c(F)c(OC)cc(OC)c1F)C(=O)C21CC1` [Example 17, N-(5-(2′-(2,6-difluoro-3,5-dimethoxyphenyl)-3′-oxo-2′,3′-dihydro-1′H-spiro[cyclopropane-1,4′-[2,7]naphthyridine]-6′-yl)-1-(2-hydroxyethyl)-1H-pyrazol-4-yl)acrylamide], the FGFR1/FGFR4 on FGFR1 (pre-incubated for 4 hours) is over 100. Moreover, on FGFR3 (pre-incubated for 4 hours), the FGFR3/FGFR4 is on record as over 100. The FGFR2/FGFR4 at FGFR2 (pre-incubated for 4 hours) is over 100.

As to `C=CC(=O)Nc1cn(CCOC)nc1-c1cc2c(cn1)CN(c1c(F)c(OC)cc(OC)c1F)C(=O)C21CC1` [Example 32, N-(3-(2′-(2,6-difluoro-3,5-dimethoxyphenyl)-3′-oxo-2′,3′-dihydro-1′H-spiro[cyclopropane-1,4′-[2,7]naphthyridine]-6′-yl)-1-(2-methoxyethyl)-1H-pyrazol-4-yl)acrylamide], the FGFR1/FGFR4 on FGFR1 (pre-incubated for 4 hours) is listed as over 100. Besides, the FGFR3/FGFR4 on FGFR3 (pre-incubated for 4 hours) was over 100. Also, the FGFR2/FGFR4 at FGFR2 (pre-incubated for 4 hours) is reported as over 100.

As to `C=CC(=O)Nc1cn(CCN2CCOCC2)nc1-c1cc2c(cn1)CN(c1c(F)c(OC)cc(OC)c1F)C(=O)C21CC1` [Example 34, N-(3-(2′-(2,6-difluoro-3,5-dimethoxyphenyl)-3′-oxo-2′,3′-dihydro-1′H-spiro[cyclopropane-1,4′-[2,7]naphthyridine]-6′-yl)-1-(2-morpholinoethyl)-1H-pyrazol-4-yl)acrylamide], the FGFR1/FGFR4 at FGFR1 (pre-incubated for 4 hours) was over 100. Besides, the FGFR3/FGFR4 at FGFR3 (pre-incubated for 4 hours) is over 100. Further, the FGFR2/FGFR4 on FGFR2 (pre-incubated for 4 hours) is over 100.

`C=CC(=O)Nc1cc(-c2cc3c(cn2)CN(c2c(F)c(OC)cc(OC)c2F)C(=O)C32CC2)cc(N2CCOCC2)c1` [Example 10, N-{3-[2′-(2,6-difluoro-3,5-dimethoxyphenyl)-3′-oxo-2′,3′-dihydro-1′H-spiro[cyclopropane-1,4′-[2,7]naphthyridin]-6′-yl]-5-morpholin-4-ylphenyl}acrylamide]: the FGFR1/FGFR4 on FGFR1 (setting [1]) and at FGFR1 (pre-incubated for 4 hours) was over 100 in each case. For the same compound, the FGFR3/FGFR4 on FGFR3 (setting [1]) and on FGFR3 (pre-incubated for 4 hours) was over 100 each time. Moreover, the FGFR2/FGFR4 at FGFR2 (setting [1]) and on FGFR2 (pre-incubated for 4 hours) was over 100 throughout.
